Here are results for 1 compound from patent US5621102A, “Process for preparing enantiomerically pure xanthine derivatives” (Cell Therapeutics, Inc., priority 1995, dated 1997).

Assay [1] has as its system TNF-α release from LPS-activated mouse peritoneal macrophages. In words: TNF-α release from LPS stimulated PEC, ELISA. Type of assay: cell-based. The note with it: Peritoneal macrophage. The method, then: R. Cells were isolated and treated with or without various concentrations of CT1501R one hour prior to LPS activation ([…]). Twenty four hours later the supernalants were collected assayed for TNF-α by ELISA (+/-SD).
Murine peritoneal exudate cell macrophages (PEC) were isolated by perfusion of mouse peritoneum and plated into 96-well trays at 5×10^5 cells per well. […] At various times thereafter, supernatants were removed and levels of either TNF-α or IL-1α were assayed using commercial 96-well microtiter immunoassay kits (Genzyme; TNF; Endogen, Boston, Mass.; IL-1α) according to manufacturer's specifications. […] 4000 cells were plated into each well of a 96-well microtiter plate and allowed to incubate for 72 hrs at 37° C. […] Either the HUVEC or U937 cells were stimulated with either LPS, IL-1α or TNF-α for 12 hrs. For the adhesion assay, U937 cells were labeled with the fluorescent viability stain, 2',7'-bis-(2-carboxyethyl)-5-(and-6)-carboxyfluorescein acetoxymethyl ester (BCECF). […] The cells were washed once with full media and 50,000 cells/well added to the HUVEC cultures. The samples were incubated at 37° C. for 30 min, inverted and centrifuged for 10 min at 400×g. After addition of […] Hanks Balanced Salt Solution (HBSS), the microtiter plate was then analyzed on a Millipore Cytofiuor fluorescent plate reader (excitation 488 nm; emission 525 nm). […]

A further assay concerns TNF-α. In words: mouse plasma TNF-α ELISA after endotoxin. Type of assay: in vivo, mice. The method, then:
Each point represents the average of two experiments compiled from the average of duplicate ELISA measurements with each experimental point representing pooled plasma from three mice.
For ELISA measurements of cytokine levels in plasma, blood was collected by retro-orbital or cardiac puncture of anesthetized mice, immediately centrifuged and the EDTA plasma stored at -70° C. Particulate free plasma was thawed on ice and cytokine levels determined utilizing commercial ELISA assays with normal mouse plasma used to generate standard curves. Murine tumor necrosis factor-α and interleukin-1α kits were purchased from Genzyme (Cambridge, Mass.) and Endogen (Boston, Mass.), respectively. Each data point was an average of two ELISA measurements made from EDTA serum pooled from three mice. The data summarized in Table 3 were compiled from two independent experiments; data from Table 4 and 5 were from single experiments of three mice per data point.
Levels of TNF-α, IL-1α and IL-6 were measured in the plasma of mice as a function of time following treatment with S. abortus endotoxin. […] TNF-α levels peaked within 1 hour of treatment of endotoxin (Table 4 and FIG. 6). Treatment of the mice with CT1501R decreased the levels of TNF-α in the EDTA plasma of endotoxin treated mice at all time points measured. […]
On the technique in general: In an ELISA, binding on a coated surface is turned into a signal by an enzyme label.

With `C[C@@H](O)CCCCn1c(=O)c2c(ncn2C)n(C)c1=O` [CT1501R, (R)-1-(5-hydroxyhexyl)-3,7-dimethylxanthine], the inhibition at 500 µM in assay [1] (500 μM, read-out: inhibitory effects, % of the maximal LPS stimulation (1428 pg/ml)) is approximately 40%. The IC50 in assay [1] (drug 1 hour before LPS (10 μg/ml LPS), read-out: IC50 for TNF-α inhibition (concentration for 50% inhibition)) is approximately 30 µM. Besides, the “decrease of peak plasma TNF-α vs endotoxin only” value came out at 2.5 fold with TNF-α (0.5 hour post endotoxin) and 2.6 fold in the assay on TNF-α (1 hour post endotoxin).
